The target in this assay is T1, LYN A (Homo sapiens, UniProt P07948).
T1 construct: purchased Thermo Fisher Scientific (Life Technologies) SelectScreen
Description: SelectScreen Z'LYTE. It counts as biochemical. The method, boiled down: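 Compound tested in SelectScreen activity assays, Z'LYTE for CSF1R, CDK1/cyclin B and MAP2K6 and Adapta for CAMK1. ATP for CAMK1 was listed as 10, and Km app was used for CSF1R. Results are expressed in percent.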

What is called inhibition is the drop in the measured response relative to a control, in per cent.

T1 sequence (P07948 whole entry): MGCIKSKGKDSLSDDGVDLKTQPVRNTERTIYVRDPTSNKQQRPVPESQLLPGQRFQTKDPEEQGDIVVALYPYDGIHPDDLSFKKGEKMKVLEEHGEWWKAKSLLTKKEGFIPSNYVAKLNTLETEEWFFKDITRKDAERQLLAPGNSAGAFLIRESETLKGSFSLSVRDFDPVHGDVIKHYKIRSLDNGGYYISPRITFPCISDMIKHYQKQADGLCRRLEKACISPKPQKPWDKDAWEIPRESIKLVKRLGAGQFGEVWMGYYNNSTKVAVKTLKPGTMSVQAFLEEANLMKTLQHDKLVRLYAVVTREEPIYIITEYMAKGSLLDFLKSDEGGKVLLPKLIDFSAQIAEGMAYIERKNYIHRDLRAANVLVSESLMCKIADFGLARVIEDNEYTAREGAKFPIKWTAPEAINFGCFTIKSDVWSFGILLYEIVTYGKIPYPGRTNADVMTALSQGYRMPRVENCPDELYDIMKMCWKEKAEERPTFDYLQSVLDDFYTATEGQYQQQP

The molecule `CN(C(=O)CN1CCOCC1)c1ccc2sc3c(-c4cccc5c(=O)cc(N6CC7CCC(C6)O7)oc45)cccc3c2c1` [NU5455] showed an inhibition at 1 µM of 15.2%.

The values are drawn from paper PMC6934184, “Selective DNA-PKcs inhibition extends the therapeutic index of localized radiotherapy and chemotherapy” (The Journal of Clinical Investigation, 2019).
